{"source": "patent US8697382B2", "about": "“Method of identifying metallo-β-lactamase-producing bacteria” (Meiji Seika Pharma Co., Ltd., priority 2009, dated 2014)", "test_system": "IMP-1-producing Pseudomonas aeruginosa", "assay": "Disk diffusion test: β-lactam agent disks placed 20 mm from a central compound (I) disk; growth inhibition zone radius measured", "assay_type": "cell-based", "conditions": "Muller-Hinton agar, overnight culture at 35° C.; for Ratio = Maximum/Minimum inhibition zone radius (degree of change in radius, A3/B3/C3): change caused by the compound (I) disk; for Inhibition zone radius, Maximum (A2/B2/C2): subzone on the compound (I) (disodium 2,3-diethylmaleate) disk side, subject to the metallo-β-lactamase inhibitor; for Inhibition zone radius, Minimum (A1/B1/C1): subzone on the side opposite to the compound (I) disk, not subject to the metallo-β-lactamase inhibitor", "excerpt": "When the bacteria to be tested are MBL-producing bacteria, the shape of an inhibition zone formed around each β-lactam agent varies depending on the effect of the metallo-β-lactamase inhibitor (compound (I)). In this case, the inhibition zone formed around each β-lactam agent can be divided into two subzones (i.e., an inhibition subzone formed on the side opposite to the compound (I)-containing disk and an inhibition subzone formed on the compound (I)-containing disk side) by measurement along the center lines of the β-lactam agent-containing and compound (I)-containing disks (FIG. 1).\nThe inhibition subzone formed on the side opposite to the compound (I)-containing disk is not subject to the effect of the metallo-β-lactamase inhibitor. Thus, its radius can be minimized in the whole inhibition zone (e.g., the numerical value obtained here can be defined as “A1”, “B1” and “C1” for the β-lactam agents (A), (B) and (C), respectively (Table 1)). When no inhibition zone is formed, the radius of the disk can be used.\nThe inhibition subzone formed on the compound (I)-containing disk side is subject to the effect of the metallo-β-lactamase inhibitor. Thus, its radius can be maximized in the whole inhibition zone (e.g., the numerical value obtained here can be defined as “A2”, “B2” and “C2” for the β-lactam agents (A), (B) and (C), respectively (Table 1)). When no inhibition zone is formed, the radius of the disk can be used. Moreover, when the formed inhibition zone is wider than the distance between the disks, the distance from the center of the drug-containing disk to the compound (I)-containing disk can be used (e.g., “A2” in the flow 8 in the flowchart of FIG. 2 represents the distance from the center of the β-lactam agent (A)-containing disk to the compound (I)-containing disk).\nThe degree of change in the shape of the inhibition zone caused by the effect of the metallo-β-lactamase inhibitor can be measured as the ratio between the minimum and maximum radiuses of the inhibition zone, i.e., the degree of change in radius. For example, it can be calculated by dividing the maximum radius of the inhibition zone by the minimum radius thereof (e.g., this calculated value can be defined as “A3”, “B3”, and “C3”, respectively (Table 1)).\nAccording to the disk diffusion method specified by CLSI, a Muller-Hinton agar medium was coated with a bacterial solution adjusted to McFarland standard turbidity of 0.5. No water droplet of the bacterial solution on the medium surface was confirmed, and round filter papers (diameter: approximately 6 mm) respectively containing 300 μg of a compound (I), 100 μg of biapenem as a drug (A), 100 μg of imipenem as a drug (B), and 300 μg of ceftazidime as a drug (C) were placed thereonto as drug-containing disks. The compound (I) used was a compound represented by the formula (I) wherein both R^1 and R^2 are an ethyl group, and M^1 is a sodium cation (disodium 2,3-diethylmaleate). The compound (I) was placed at the center of the agar medium, while the drugs (A) to (C) were placed such that the center of each disk was 20 mm distant from the center of the compound (I). After overnight culture at 35° C., the minimum and maximum radiuses of a growth inhibition zone around each disk were measured, and the degree of change in radius was calculated according to Table 1. The IMP or VIM MBL-producing bacteria were identified using a decision flow of FIG. 2.\nIn Example 2, bacteria to be tested were IMP-1-producing Pseudomonas aeruginosa. According to the disk diffusion method specified by CLSI, a Muller-Hinton agar medium was coated with the Pseudomonas aeruginosa, and disks were then placed thereonto.\nIn FIG. 4, the upper disk contained biapenem (BIPM) (A); the lower right disk contained imipenem (IPM) (B); the lower left disk contained ceftazidime (CAZ) (C); and the central disk was a compound (I)-containing disk. […]", "data": [{"molecule": "C[C@@H](O)[C@H]1C(=O)N2C(C(=O)O)=C(SCCN=CN)C[C@H]12", "note": "[imipenem]", "values": [{"measurement": "Ratio = Maximum/Minimum inhibition zone radius (degree of change in radius, A3/B3/C3)", "value": 2.2}, {"measurement": "Inhibition zone radius, Maximum (A2/B2/C2)", "value": 14.0, "unit": "mm"}, {"measurement": "Inhibition zone radius, Minimum (A1/B1/C1)", "value": 6.5, "unit": "mm"}]}, {"molecule": "C[C@@H](O)[C@H]1C(=O)N2C(C(=O)[O-])=C(SC3Cn4cnc[n+]4C3)[C@H](C)[C@H]12", "note": "(stereo partly drawn) [biapenem]", "values": [{"measurement": "Ratio = Maximum/Minimum inhibition zone radius (degree of change in radius, A3/B3/C3)", "value": 2.9}, {"measurement": "Inhibition zone radius, Maximum (A2/B2/C2)", "value": 16.0, "unit": "mm"}, {"measurement": "Inhibition zone radius, Minimum (A1/B1/C1)", "value": 5.5, "unit": "mm"}]}, {"molecule": "CC(C)(O/N=C(\\C(=O)N[C@@H]1C(=O)N2C(C(=O)[O-])=C(C[n+]3ccccc3)CS[C@H]12)c1csc(N)n1)C(=O)O", "note": "[ceftazidime]", "values": [{"measurement": "Ratio = Maximum/Minimum inhibition zone radius (degree of change in radius, A3/B3/C3)", "value": 4.1}, {"measurement": "Inhibition zone radius, Maximum (A2/B2/C2)", "value": 14.5, "unit": "mm"}, {"measurement": "Inhibition zone radius, Minimum (A1/B1/C1)", "value": 3.5, "unit": "mm"}]}]}
